Where two headings read alike, the source gives them in different places.
Columns and labels:
Experiment in all cases: HOTSPOT radiometric kinase assay
CLK2 = biological target: T1, CLK2 (Homo sapiens, UniProt P49760); assay type: biochemical; details: 10 μM ATP
T1 construct: purchased Reaction Biology Corp

PKG2 = biological target: T2, PKG2 (Homo sapiens, UniProt Q13237); assay type: biochemical; details: 10 μM ATP
T2 construct: purchased Reaction Biology Corp

STK39/STLK3 = biological target: T3, STK39/STLK3 (Homo sapiens, UniProt Q9UEW8); assay type: biochemical; details: 2 μM, 10 μM ATP
T3 construct: purchased Reaction Biology Corp

PKD2 = biological target: T4, PKD2 (Homo sapiens, UniProt Q9BZL6); assay type: biochemical; details: 10 μM ATP
T4 construct: purchased Reaction Biology Corp

CLK4 = biological target: T5, CLK4 (Homo sapiens, UniProt Q9HAZ1); assay type: biochemical
T5 construct: purchased Reaction Biology Corp
T5 sequence (Q9HAZ1 whole entry): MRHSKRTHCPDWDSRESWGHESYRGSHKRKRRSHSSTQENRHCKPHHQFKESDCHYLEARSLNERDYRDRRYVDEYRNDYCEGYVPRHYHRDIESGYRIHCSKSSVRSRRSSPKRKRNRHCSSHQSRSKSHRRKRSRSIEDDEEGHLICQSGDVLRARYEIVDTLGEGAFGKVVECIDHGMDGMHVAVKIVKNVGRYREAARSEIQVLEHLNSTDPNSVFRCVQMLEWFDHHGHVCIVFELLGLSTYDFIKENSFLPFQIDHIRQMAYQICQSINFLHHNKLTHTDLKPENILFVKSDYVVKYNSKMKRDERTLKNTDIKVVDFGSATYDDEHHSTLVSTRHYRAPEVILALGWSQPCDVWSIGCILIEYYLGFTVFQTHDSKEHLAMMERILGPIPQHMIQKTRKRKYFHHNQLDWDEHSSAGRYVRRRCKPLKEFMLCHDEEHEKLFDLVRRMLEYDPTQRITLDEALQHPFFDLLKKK

ROCK1 = biological target: T6, ROCK1 (Homo sapiens, UniProt Q13464); assay type: biochemical; details: 10 μM ATP
T6 construct: purchased Reaction Biology Corp

PKCε = biological target: T7, PKCε (Homo sapiens, UniProt Q02156); assay type: biochemical; details: 10 μM ATP
T7 construct: purchased Reaction Biology Corp

HASPIN = biological target: T8, HASPIN (Homo sapiens, UniProt Q8TF76); assay type: biochemical; details: 10 μM ATP
T8 construct: purchased Reaction Biology Corp
T8 sequence (Q8TF76 whole entry): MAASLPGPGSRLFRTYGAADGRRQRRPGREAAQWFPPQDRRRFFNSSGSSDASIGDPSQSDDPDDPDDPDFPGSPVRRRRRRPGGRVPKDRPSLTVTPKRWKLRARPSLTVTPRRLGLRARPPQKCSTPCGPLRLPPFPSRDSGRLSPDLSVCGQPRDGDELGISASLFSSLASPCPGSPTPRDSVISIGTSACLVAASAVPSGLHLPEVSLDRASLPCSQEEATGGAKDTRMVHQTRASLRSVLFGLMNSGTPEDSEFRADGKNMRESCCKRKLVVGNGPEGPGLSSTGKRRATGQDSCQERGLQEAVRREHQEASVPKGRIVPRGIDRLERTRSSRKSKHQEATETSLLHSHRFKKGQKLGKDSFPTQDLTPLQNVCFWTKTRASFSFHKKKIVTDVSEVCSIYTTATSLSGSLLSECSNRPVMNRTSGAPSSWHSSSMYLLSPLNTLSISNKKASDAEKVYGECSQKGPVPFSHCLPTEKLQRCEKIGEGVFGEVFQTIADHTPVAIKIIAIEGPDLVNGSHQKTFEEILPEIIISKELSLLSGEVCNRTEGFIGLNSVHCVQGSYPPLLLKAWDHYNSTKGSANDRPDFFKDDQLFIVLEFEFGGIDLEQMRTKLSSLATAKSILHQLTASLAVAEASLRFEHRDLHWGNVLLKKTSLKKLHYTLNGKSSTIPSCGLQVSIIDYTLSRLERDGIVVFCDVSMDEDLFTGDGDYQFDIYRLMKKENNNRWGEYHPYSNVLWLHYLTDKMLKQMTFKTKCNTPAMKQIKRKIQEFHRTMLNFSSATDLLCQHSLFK

STK33 = biological target: T9, STK33 (Homo sapiens, UniProt Q9BYT3); assay type: biochemical; details: 10 μM ATP
T9 construct: purchased Reaction Biology Corp
T9 sequence (Q9BYT3 whole entry): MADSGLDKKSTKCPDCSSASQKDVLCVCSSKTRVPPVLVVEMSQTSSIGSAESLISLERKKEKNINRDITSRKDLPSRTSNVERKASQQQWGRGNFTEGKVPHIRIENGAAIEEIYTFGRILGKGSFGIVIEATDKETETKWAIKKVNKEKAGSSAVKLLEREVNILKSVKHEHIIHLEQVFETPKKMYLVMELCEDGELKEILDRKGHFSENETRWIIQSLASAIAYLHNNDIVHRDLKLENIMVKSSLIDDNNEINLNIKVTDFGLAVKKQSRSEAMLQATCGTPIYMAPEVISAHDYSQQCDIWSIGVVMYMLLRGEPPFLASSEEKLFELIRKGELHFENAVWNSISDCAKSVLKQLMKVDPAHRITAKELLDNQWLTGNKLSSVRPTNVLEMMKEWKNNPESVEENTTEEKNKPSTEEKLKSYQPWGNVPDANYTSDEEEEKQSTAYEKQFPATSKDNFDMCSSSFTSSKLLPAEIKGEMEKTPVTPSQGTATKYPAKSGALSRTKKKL

RAF1 = biological target: T10, RAF1 (Homo sapiens, UniProt P04049, Y340D/Y341D); assay type: biochemical; details: 10 μM ATP
T10 construct: purchased Reaction Biology Corp
T10 sequence (P04049 306-648 Y340D/Y341D limits assumed): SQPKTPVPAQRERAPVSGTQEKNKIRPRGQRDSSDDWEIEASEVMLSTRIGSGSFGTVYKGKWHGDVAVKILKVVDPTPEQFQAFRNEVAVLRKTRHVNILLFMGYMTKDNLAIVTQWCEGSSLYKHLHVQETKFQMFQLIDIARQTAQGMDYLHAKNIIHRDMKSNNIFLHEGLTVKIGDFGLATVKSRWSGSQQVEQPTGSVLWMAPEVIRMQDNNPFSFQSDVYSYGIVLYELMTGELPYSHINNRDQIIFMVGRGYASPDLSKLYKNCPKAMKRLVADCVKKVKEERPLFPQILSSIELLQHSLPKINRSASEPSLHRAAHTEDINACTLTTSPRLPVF

PKCμ/PKD1 = biological target: T11, PKCμ/PKD1 (Homo sapiens, UniProt Q15139); assay type: biochemical; details: 10 μM ATP
T11 construct: purchased Reaction Biology Corp

NLK = biological target: T12, NLK (Homo sapiens, UniProt Q9UBE8); assay type: biochemical; details: 10 μM ATP
T12 construct: purchased Reaction Biology Corp

PKN1 = biological target: T13, PKN1 (Homo sapiens, UniProt Q16512); assay type: biochemical; details: 10 μM ATP
T13 construct: purchased Reaction Biology Corp

PKN3 = biological target: T14, PKN3 (Homo sapiens, UniProt Q6P5Z2); assay type: biochemical; details: 10 μM ATP
T14 construct: purchased Reaction Biology Corp

smMLCK = biological target: T15, smMLCK (Homo sapiens, UniProt Q15746); assay type: biochemical; details: 10 μM ATP
T15 construct: purchased Reaction Biology Corp

WNK1 = biological target: T16, WNK1 (Homo sapiens, UniProt Q9H4A3); assay type: biochemical; details: 10 μM ATP
T16 construct: purchased Reaction Biology Corp
T16 sequence (Q9H4A3 whole entry): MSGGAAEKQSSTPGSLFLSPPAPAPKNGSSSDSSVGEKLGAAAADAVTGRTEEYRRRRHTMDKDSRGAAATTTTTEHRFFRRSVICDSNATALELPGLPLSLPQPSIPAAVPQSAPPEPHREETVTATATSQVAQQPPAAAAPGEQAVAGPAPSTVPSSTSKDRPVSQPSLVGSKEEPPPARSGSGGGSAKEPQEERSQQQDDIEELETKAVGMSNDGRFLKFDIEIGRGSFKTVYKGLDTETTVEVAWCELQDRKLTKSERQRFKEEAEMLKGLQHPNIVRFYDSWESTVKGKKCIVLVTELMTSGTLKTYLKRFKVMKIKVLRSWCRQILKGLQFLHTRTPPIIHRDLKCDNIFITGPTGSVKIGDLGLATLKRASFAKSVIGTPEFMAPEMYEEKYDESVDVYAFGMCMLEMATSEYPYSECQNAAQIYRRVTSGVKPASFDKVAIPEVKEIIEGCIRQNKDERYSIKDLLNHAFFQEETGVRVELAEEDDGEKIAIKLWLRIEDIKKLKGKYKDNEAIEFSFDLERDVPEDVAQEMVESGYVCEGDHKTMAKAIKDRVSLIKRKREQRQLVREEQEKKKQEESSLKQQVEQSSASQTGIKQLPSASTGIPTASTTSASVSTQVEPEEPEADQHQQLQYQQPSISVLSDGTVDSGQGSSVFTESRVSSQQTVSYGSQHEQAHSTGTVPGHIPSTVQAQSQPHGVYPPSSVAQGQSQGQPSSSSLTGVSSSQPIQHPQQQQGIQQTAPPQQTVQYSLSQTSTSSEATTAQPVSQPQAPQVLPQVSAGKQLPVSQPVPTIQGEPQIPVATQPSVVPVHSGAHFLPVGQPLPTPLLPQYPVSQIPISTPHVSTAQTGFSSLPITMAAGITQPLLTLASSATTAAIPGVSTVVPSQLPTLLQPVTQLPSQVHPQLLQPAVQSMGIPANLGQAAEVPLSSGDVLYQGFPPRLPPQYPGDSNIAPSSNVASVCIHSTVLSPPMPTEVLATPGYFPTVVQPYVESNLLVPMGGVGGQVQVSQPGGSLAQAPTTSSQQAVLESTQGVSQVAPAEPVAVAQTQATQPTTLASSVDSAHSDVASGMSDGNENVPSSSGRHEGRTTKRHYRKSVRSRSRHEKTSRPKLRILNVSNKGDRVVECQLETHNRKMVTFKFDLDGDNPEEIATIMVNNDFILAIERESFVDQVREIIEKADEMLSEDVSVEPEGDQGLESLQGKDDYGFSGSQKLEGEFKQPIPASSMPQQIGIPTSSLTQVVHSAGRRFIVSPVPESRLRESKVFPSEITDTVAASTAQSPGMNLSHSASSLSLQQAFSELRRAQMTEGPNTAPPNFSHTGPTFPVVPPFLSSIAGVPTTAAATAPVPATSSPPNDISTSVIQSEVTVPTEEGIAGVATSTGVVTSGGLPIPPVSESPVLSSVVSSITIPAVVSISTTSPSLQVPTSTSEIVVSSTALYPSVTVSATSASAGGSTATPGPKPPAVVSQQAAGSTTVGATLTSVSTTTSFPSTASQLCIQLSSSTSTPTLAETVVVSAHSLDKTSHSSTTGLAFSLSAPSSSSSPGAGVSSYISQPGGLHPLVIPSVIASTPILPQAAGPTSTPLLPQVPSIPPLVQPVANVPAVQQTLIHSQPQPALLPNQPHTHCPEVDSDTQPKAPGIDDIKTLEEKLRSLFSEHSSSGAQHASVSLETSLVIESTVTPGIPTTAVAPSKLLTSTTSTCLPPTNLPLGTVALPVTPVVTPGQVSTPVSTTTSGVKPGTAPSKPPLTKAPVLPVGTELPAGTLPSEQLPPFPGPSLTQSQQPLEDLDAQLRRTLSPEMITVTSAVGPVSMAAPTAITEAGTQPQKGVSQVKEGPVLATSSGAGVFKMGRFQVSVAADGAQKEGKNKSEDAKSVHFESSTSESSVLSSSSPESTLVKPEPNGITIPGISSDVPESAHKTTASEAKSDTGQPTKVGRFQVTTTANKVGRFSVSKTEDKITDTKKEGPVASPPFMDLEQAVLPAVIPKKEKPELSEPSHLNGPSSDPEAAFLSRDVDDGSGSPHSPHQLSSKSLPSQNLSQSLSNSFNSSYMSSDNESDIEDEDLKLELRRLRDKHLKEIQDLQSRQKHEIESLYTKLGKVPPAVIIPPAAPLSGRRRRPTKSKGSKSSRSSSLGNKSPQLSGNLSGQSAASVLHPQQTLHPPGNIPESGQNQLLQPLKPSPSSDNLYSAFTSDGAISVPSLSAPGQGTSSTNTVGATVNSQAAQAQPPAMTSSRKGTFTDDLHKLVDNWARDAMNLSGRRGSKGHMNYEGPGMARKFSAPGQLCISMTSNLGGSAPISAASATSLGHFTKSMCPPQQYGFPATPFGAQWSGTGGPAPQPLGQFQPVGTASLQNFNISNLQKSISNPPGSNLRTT

MST3 = biological target: T17, MST3 (Homo sapiens, UniProt Q9Y6E0); assay type: biochemical; details: 10 μM ATP
T17 construct: purchased Reaction Biology Corp

EPHB3 = biological target: T18, EPHB3 (Homo sapiens, UniProt P54753); assay type: biochemical; details: 10 μM ATP
T18 construct: purchased Reaction Biology Corp

DCAMKL1 = biological target: T19, DCAMKL1 (Homo sapiens, UniProt O15075); assay type: biochemical; details: 10 μM ATP
T19 construct: purchased Reaction Biology Corp

CDK2 = biological target: T20, CDK2 (Homo sapiens, UniProt P24941); assay type: biochemical; details: 10 μM ATP
T20 construct: purchased Reaction Biology Corp

DYRK4 = biological target: T21, DYRK4 (Homo sapiens, UniProt Q9NR20); assay type: biochemical; details: 10 μM ATP
T21 construct: purchased Reaction Biology Corp

AKT1 = AKT1 (Homo sapiens, UniProt P31749)
AKT1, sequence (P31749 whole entry): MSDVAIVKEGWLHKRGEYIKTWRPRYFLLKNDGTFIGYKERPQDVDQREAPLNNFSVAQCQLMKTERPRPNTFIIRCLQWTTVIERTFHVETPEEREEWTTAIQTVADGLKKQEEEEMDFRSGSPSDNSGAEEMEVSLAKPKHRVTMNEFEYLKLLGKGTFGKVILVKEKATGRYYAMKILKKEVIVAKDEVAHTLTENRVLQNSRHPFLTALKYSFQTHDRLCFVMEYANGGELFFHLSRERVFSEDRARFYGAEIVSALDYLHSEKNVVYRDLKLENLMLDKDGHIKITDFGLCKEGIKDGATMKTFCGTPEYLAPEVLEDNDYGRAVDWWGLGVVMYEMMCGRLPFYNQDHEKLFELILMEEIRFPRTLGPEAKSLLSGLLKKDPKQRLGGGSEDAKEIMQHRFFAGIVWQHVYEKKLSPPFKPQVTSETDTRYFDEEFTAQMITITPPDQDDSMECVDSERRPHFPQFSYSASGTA

ERBB2/HER2 = ERBB2/HER2 (Homo sapiens, UniProt P04626)

Question: Which results are given for `Cn1cncc1C1=CN(c2ncnc3nc[nH]c23)CCS1` [Compound 1, Aplithianine A]?
Answer: inhibition at 2 µM (CLK2): 97.8%; inhibition at 2 µM (PKG2): 99.4%; inhibition at 2 µM (STK39/STLK3): 87.3%; inhibition at 0.05 µM (PKD2; 50 nM): 38.2%; inhibition at 2 µM (PKD2; 2 μM): 93.1%; inhibition at 0.05 µM (CLK4; 50 nM, 10 μM ATP): 27.1%; inhibition at 2 µM (CLK4; 2 μM, 10 μM ATP): 84.7%; IC50 (CLK4; 10 μM ATP, read-out: CLK4 IC50): 153 nM; CLK4 Differential (as compared to PKG1a) (CLK4; IC50 (kinase)/IC50 (PKG1a)): 13.49; IC50 (CLK4; Table 4 dose-response, read-out: CLK4 IC50 Values): 154 nM; inhibition at 0.05 µM (ROCK1; 50 nM): 27%; inhibition at 2 µM (ROCK1; 2 μM): 88.6%; inhibition at 0.05 µM (PKCε; 50 nM): 25.8%; inhibition at 2 µM (PKCε; 2 μM): 92.7%; inhibition at 0.05 µM (HASPIN; 50 nM): 25.6%; inhibition at 2 µM (HASPIN; 2 μM): 88.4%; inhibition at 0.05 µM (STK33; 50 nM): 23.6%; inhibition at 2 µM (STK33; 2 μM): 80.5%; inhibition at 0.05 µM (RAF1; 50 nM): 21.6%; inhibition at 2 µM (RAF1; 2 μM): 47%; inhibition at 0.05 µM (PKCμ/PKD1; 50 nM): 21.3%; inhibition at 2 µM (PKCμ/PKD1; 2 μM): 89.2%; inhibition at 0.05 µM (NLK; 50 nM): 19.6%; inhibition at 2 µM (NLK; 2 μM): 43%; inhibition at 0.05 µM (PKN1; 50 nM): 18.8%; inhibition at 2 µM (PKN1; 2 μM): 87.7%; inhibition at 0.05 µM (PKN3; 50 nM): 18.6%; inhibition at 2 µM (PKN3; 2 μM): 80.4%; inhibition at 0.05 µM (smMLCK; 50 nM): 18.2%; inhibition at 2 µM (smMLCK; 2 μM): 91.1%; inhibition at 0.05 µM (WNK1; 50 nM): 14.1%; inhibition at 2 µM (WNK1; 2 μM): 10.7%; inhibition at 0.05 µM (MST3; 50 nM): 13.2%; inhibition at 2 µM (MST3; 2 μM): -15.6%; inhibition at 0.05 µM (EPHB3; 50 nM): 12.8%; inhibition at 2 µM (EPHB3; 2 μM): 20.2%; inhibition at 0.05 µM (DCAMKL1; 50 nM): 12.8%; inhibition at 2 µM (DCAMKL1; 2 μM): 14.2%; inhibition at 0.05 µM (CDK2; 50 nM): 12.6%; inhibition at 2 µM (CDK2; 2 μM): 49.1%; IC50 (DYRK4): 15200 nM; IC50 (AKT1): 43 to 189 nM; inhibition at 0.05 µM (AKT1; read-out: AKT1 % inhibition): 25.1%; inhibition at 2 µM (AKT1; read-out: AKT1 % inhibition): 83.7%; IC50 (AKT1; read-out: AKT1 IC50, 10 μM ATP): 179 nM; IC50 (ERBB2/HER2): 18000 to 65000 nM; IC50 (ERBB2/HER2; read-out: ERBB2/HER2 IC50, 10 μM ATP): 26400 nM
